Results as given in paper PMC7895462 (Neurochemical research, 2017).
Read-outs that look alike come from different tables or passages of the source.

Assays:
[1] = test system: 60 Hz corneal kindled seizures; conditions: for average seizure score (SEM): corneal kindled mouse
[2] = test system: 60 Hz corneal kindled seizures; test: animal or person; conditions: Mus musculus, ip
[3] = in vivo; conditions: mouse
[4] = for Mouse P.O. identification TOX / Mouse I.P identification TOX: 0.5 and 2 h, default doses 30, 100, 300 mg/kg
[5] = test system: MES-induced seizures; test: Maximal electroshock; assay type: in vivo
[6] = test system: psychomotor seizures induced by 6 Hz 44 mA corneal stimulus; test: 6 Hz 44 mA mouse test; assay type: in vivo; conditions: for ED50: Mus musculus; for Mouse I.P identification 44 mA / Mouse P.O. identification 44 mA: 0.5 and 2 h, default doses 30, 100, 300 mg/kg
[7] = test system: MES-induced seizures; test: Maximal electroshock; assay type: in vivo; conditions: for ED50: Mus musculus; for Mouse I.P identification MES / Mouse P.O. identification MES: 0.5 and 2 h, default doses 30, 100, 300 mg/kg
[8] = Minimal motor impairment; conditions: for TD50: rat, in vivo
[9] = in vivo; for Rat I.P. identification TOX: ip; for Rat P.O. identification TOX: po
[10] = test system: spontaneous bursting of a mEC-HC slice; test: In vitro post-KA rat spontaneous bursting mEC-HC slice; assay type: cell-based
[11] = in vivo; conditions: rat
[12] = Open field activity monitor of rats; assay type: in vivo; conditions: rat; i.p.; 45 and 60 mg/kg; 10 min; vs vehicle
[13] = read-out: Mouse CKM (I.P.) Quant (ED50)
[14] = ip, read-out: Mouse I.P. quantification 44 mA (ED50)
[15] = po, read-out: Mouse P.O. quantification 44 mA (ED50)
[16] = ip, read-out: Mouse I.P. quantification MES (ED50)
[17] = po, read-out: Mouse P.O. quantification MES (ED50)
[18] = ip, Rat I.P. quantification TOX (TD50)
[19] = po, Rat P.O. quantification TOX (TD50)
[20] = read-out: Mouse CKM (I.P.) Quant (ED50), i.p.
[21] = 30 mg/kg (n = 2 mice) and 40 mg/kg (n = 1 mouse)

Row | SMILES | Mouse CKM (I.P.) ID ([1]; i.p.) | TD50 ([3]; ip) | TD50 ([3]; po) | Mouse P.O. identification TOX [4] | Rat I.P. identification MES ([5]; i.p.) | Rat P.O. identification MES [5] | ED50 [6, 14] | ED50 [6, 15] | Mouse I.P identification 44 mA ([6]; i.p., 6 Hz 44 mA) | Mouse P.O. identification 44 mA ([6]; 6 Hz 44 mA) | ED50 [7, 16] | ED50 [7, 17] | Mouse I.P identification MES ([7]; i.p.) | Mouse P.O. identification MES [7] | Rat I.P. identification TOX ([8]; i.p.) | Rat P.O. identification TOX [8] | ED50 [2, 20] | Rat I.P. identification TOX [9] | Rat P.O. identification TOX [9] | Mouse I.P identification TOX ([4]; i.p.) | also measured
1 | CCOC(=O)Nc1ccc(NCc2ccc(F)cc2)cc1N [Retigabine, retigabine] | + | 129 mg/kg | > 500 mg/kg | + | + | + | 32.5 mg/kg | 75.1 mg/kg | + | + | 25.7 mg/kg | 57 mg/kg | + | + | + | + |  |  |  |  | ED50 [2, 13]: 13.7 mg/kg; TD50 [8, 18]: 23.4 mg/kg; TD50 [8, 19]: 64.4 mg/kg
2 | CCCC(CCC)C(=O)O [Valproic acid, valproic acid] | + | > 300 mg/kg | < 300 mg/kg |  | − | − | 239 mg/kg | > 300 mg/kg | + | − | > 60 mg/kg | > 300 mg/kg |  | − |  |  | 94 mg/kg | − | − |  | Mouse CKM (I.P.) Quant (ED50) ([1]; i.p.): 94.02 mg/kg; protective index (PI), corneal kindled mouse ([1]; male, CF-1, mouse, in vivo, ip): > 94
3 | Cc1ccsc1C(=CCCN1CCC[C@@H](C(=O)O)C1)c1sccc1C [Tiagabine, tiagabine] |  | 5.84 mg/kg | 33.2 mg/kg |  | − | − | 1.03 mg/kg | 1.87 mg/kg | + | + |  |  | − | − |  |  |  | + | − |  | 
4 | CN1C(=O)CC(=O)N(c2ccccc2)c2cc(Cl)ccc21 [Clobazam, clobazam] | + | 26.1 mg/kg | 197 mg/kg | − | − | − | 4.5 mg/kg | 6.99 mg/kg | + | + | 16.5 mg/kg | 29.9 mg/kg | + | + | − | − |  |  |  | + | protective index (PI), corneal kindled mouse ([1]; calculated based on the i.p. TD50): 10.3; ED50 [2, 13]: 2.53 mg/kg; TD50 [8, 18]: 15.7 mg/kg
5 | CC(=O)Nc1ccc(O)cc1 [Acetaminophen, acetaminophen] | + |  |  |  | − | − |  |  | − | − |  |  | − | − |  |  | > 450 mg/kg | − | − |  | protected in the corneal kindled mouse ([1]; 20 mg/kg, i.p., 30 min after administration): 1/8; protected in the corneal kindled mouse ([1]; 80 mg/kg, i.p., 30 min after administration): 0/8; protected in the corneal kindled mouse ([1]; 120 mg/kg, i.p., 30 min after administration): 1/8; protected in the corneal kindled mouse ([1]; 150 mg/kg, i.p., 30 min after administration): 2/8; protected in the corneal kindled mouse ([1]; 175 mg/kg, i.p., 30 min after administration): 0/12; death of corneal kindled mice ([1]; 450 mg/kg, 24-hours later): 1/4; protected in the corneal kindled mouse ([1]; 450 mg/kg, i.p., 30 min after administration): 3/4; amplitude of spontaneous bursts ([10]; 3000 μM): small, but significant increase; acute effects on spontaneous bursting in vitro ([10]; concentrations up to 1000 μM): did not identify any acute effects
6 | NC(=O)N1c2ccccc2C=Cc2ccccc21 [Carbamazepine, carbamazepine] | + |  | 95.4 mg/kg |  | + | + | 31.4 mg/kg | 63.7 mg/kg | + | + | 8.38 mg/kg | 11.3 mg/kg | + | + |  |  | 6.42 mg/kg | + | + |  | protective index (PI), corneal kindled mouse ([1]; male, CF-1, mouse, in vivo, ip): 7.1; TD50 ([11]; ip): 22.9 mg/kg; TD50 ([11]; po): > 500 mg/kg
7 | Clc1cccc(N2CCNCC2)c1 [m-CPP, meta-chlorophenylpiperazine] | − |  |  | − | + | + |  |  | − | − |  |  | − | − | − | − |  |  |  | + | protected in the corneal kindled mouse ([1]; 20 mg/kg, i.p., 15 min prior to testing): 0/8; protection in the corneal kindled mouse [1, 21]: lack of protection; adverse side effects in corneal kindled mice ([1]; at the highest doses tested): severe adverse side effects, including splaying, tremors, and mortality following seizure; MMI in corneal kindled mice [4, 21]: significant MMI in all animals tested; mice with significant MMI on the rotarod assay ([4]; corneal kindled mice, 20 mg/kg, i.p., 15 min): 3/8; Mouse I.P. quantification TOX (TD50) ([4]; i.p., rotorod): 52.6 mg/kg; total distance travelled in the open field [12]: significant, dose-dependent reduction; Rat I.P. quantification MES (ED50) ([5]; i.p.): 37.1 mg/kg; Mouse I.P. quantification 44 mA (ED50) ([6]; i.p., 6 Hz 44 mA, at time of peak effect): >55 mg/kg; Mouse I.P. quantification MES (ED50) ([7]; i.p., at time of peak effect): >60 mg/kg; protective index (PI), i.p., MES test ([7]; mouse, i.p.): less than 1.0; mice protected in the MES test ([7]; screening, at 10 and 30 mg/kg): one out of four; Rat I.P. quantification TOX (TD50) ([8]; i.p.): <10 mg/kg
8 | OC[C@H]1O[C@@H](n2cnc3c(NC4CCCC4)ncnc32)[C@H](O)[C@@H]1O [N6-Cyclopentyladenosine, N^6-cyclopentyladenosine] | − | 0.94 mg/kg | 6.94 mg/kg | + | + | + | 0.19 mg/kg | 1.36 mg/kg | + | + | 1.01 mg/kg | 4.43 mg/kg | + | + | + | + |  |  |  | + | average seizure score (SEM) ([1]; 0.1 mg/kg): 4.75 ± 0.25; average seizure score (SEM) ([1]; 2 mg/kg): 4.88 ± 0.13; TD50 [8, 19]: > 10 mg/kg
9 | CC[C@@H](C(N)=O)N1CCCC1=O [Levetiracetam, levetiracetam] | + | > 1500 mg/kg | > 500 mg/kg |  | − | − | > 1500 mg/kg | > 500 mg/kg | + | + |  |  | − | − |  |  |  | − | − |  | 
